Measurements taken from PubChem BioAssay (NCI).
“And” between values parts separate entries of the source, which are not always exact repeats. Identical values can stand only once.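 Each compound was tested at five concentrations against cells in 96-well plates for 48 hours. GI50 = concentration required for 50% inhibition of growth. At the TGI there is no net growth.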

Columns and labels:
Test in all cases: NCI tumour cell line growth inhibition, 48 h
DLD-1 colon = tested on: DLD-1 colon
HOP-18 NSCLC = tested on: HOP-18 NSCLC
SNB-78 CNS = tested on: SNB-78 CNS
M19-MEL melanoma = tested on: M19-MEL melanoma
DMS 114 small cell lung = tested on: DMS 114 small cell lung
RXF-631 renal = tested on: RXF-631 renal
DMS 273 small cell lung = tested on: DMS 273 small cell lung
XF 498 CNS = tested on: XF 498 CNS
MDA-N = tested on: MDA-N
P388 leukemia = tested on: P388 leukemia
SN12K1 renal = tested on: SN12K1 renal

SMILES	TGI (DLD-1 colon) [µM]	TGI (HOP-18 NSCLC) [µM]	TGI (SNB-78 CNS) [µM]	TGI (M19-MEL melanoma) [µM]	TGI (DMS 114 small cell lung) [µM]	TGI (DMS 273 small cell lung) [µM]	TGI (XF 498 CNS) [µM]	TGI (MDA-N)	other results
O=c1cc(-c2ccccn2)[nH]c2cccc(F)c12	> 100	> 100	> 100	> 100	> 100	–	–	–	TGI (RXF-631 renal): > 100 µM
N#C/C(=C1\SCC(=O)N1c1ccccc1)c1nc2ccccc2[nH]1	> 100	–	> 100	> 100	> 100	> 100	> 100	–	–
C#CC1(O)CCC2C3CCc4cc(Oc5nc(F)nc(-c6c7ccccc7c7n6CCS7)n5)ccc4C3CC[C@@]21C (some centres undefined)	> 100	–	–	> 100	44.7	87.8	> 100	–	–
CCCn1c(SCCSc2c3ccccc3c(-c3nc(F)nc(F)n3)n2CCC)c2ccccc2c1-c1nc(F)nc(F)n1	40.4	> 100	> 100	–	–	> 100	–	–	–
O=C(O)C(Cc1cnc[nH]1)N1C(=O)c2ccccc2C1=O (centres undefined)	–	–	–	–	–	–	–	> 100 µM	–
CC(C)N(C(=O)c1cccc(C(=O)N(C(C)C)C(C)C)c1)C(C)C	> 100	> 100	> 100	> 100	> 100	> 100	> 100	–	TGI (RXF-631 renal): > 100 µM
[N-]=[N+]=NC(c1cn(C2CC(O)C(CO)O2)c(=O)[nH]c1=O)C(Cl)Br (centres undefined)	> 100	> 100	> 100	> 100	> 100	> 100	–	–	–
ClC(Cl)=C(Cl)C1(Cl)CC1COCc1ccccc1 (centres undefined)	> 100	–	60.6	73.6	59.6	> 100	73.6	–	–
CCO/C=C1\N=C(c2ccc(Cl)c(Cl)c2)OC1=O	> 100	–	> 100	> 100	> 100	> 100	> 100	–	–
COC(C)(C)[C@@H](O)[C@H](O)C[C@H](C)C1=C2CC[C@@H]3[C@@]4(C)CC[C@@H](OC(C)=O)C(C)(C)[C@@H]4C[C@@H](OC4OC(COC(C)=O)C(O)C(O)C4O)[C@@]3(C)[C@]2(C)CC1 (some centres undefined)	–	–	–	–	–	–	–	24.6 µM	GI50 (MDA-N): 11.8 µM
O=S(=O)(NC1CCCCC1)c1ccc2c(c1)OCCOCCOCCOCCO2	–	–	–	–	–	–	–	> 100 µM	–
C=CC(=O)N1C/C(=C\c2ccc(Cl)c(Cl)c2)C(=O)/C(=C/c2ccc(Cl)c(Cl)c2)C1	0.154	1.38	0.838	0.4	0.309	0.315	–	–	TGI (RXF-631 renal): 1.89 µM
C=C1CC(CC)(CCN2C(=O)c3ccccc3C2=O)OC1=O (centres undefined)	80.7	–	–	–	43	24.6	27.1	–	–
Cc1cc2c(c(C(N)=O)c1C)-c1cccc(F)c1C2=O	> 100	–	> 100	> 100	> 100	> 100	> 100	–	–
O=C1NC(N/N=C\C(O)C(O)C(O)C(O)CO)=N/C1=C/c1ccccc1 (centres undefined)	–	–	–	–	–	–	–	> 100 µM and 31.6 µM	GI50 (MDA-N): 89 µM and 15.7 µM and > 100 µM
CN(C)Cc1ccc(-c2cc3onc(-c4ccccc4)c3c(=O)n2C)cc1	–	–	–	–	–	–	–	44.5 µM	–
C/C(CC(=O)Nc1cccc(Cl)c1C)=N\NC(N)=S	> 100	–	> 100	> 100	–	–	> 100	–	TGI (RXF-631 renal): > 100 µM
C[N+]1=c2c3cccc4cccc(c(=O)n2CC1)c43	44	54.1	54.7	31.6	29.2	28.8	–	–	TGI (RXF-631 renal): > 100 µM
COc1ccc(-c2c(C)c(C(=O)O)nc(-c3ccc4c(O)c(OC)c5c(c4n3)=NC(C)(C)N=5)c2N)c(O)c1OC	–	–	–	–	–	–	–	39.9 µM	–

SMILES	TGI (DLD-1 colon) [µM]	TGI (HOP-18 NSCLC) [µM]	TGI (SNB-78 CNS) [µM]	TGI (M19-MEL melanoma) [µM]	TGI (DMS 114 small cell lung) [µM]	TGI (DMS 273 small cell lung) [µM]	TGI (XF 498 CNS) [µM]	TGI (MDA-N)	other results
COc1cc(/C=C/c2ccc(C)cc2)cc(OC)c1OC	20.7	> 100	9.81	> 88.9	> 100	17.6	13.9	2.89 µM	–
C=CO/N=[N+](\[O-])N(CC)CC	–	–	–	–	–	–	–	> 100 µM	–
O=S(=O)(O)O	> 3000	1680	2930	–	–	540	–	360 µM	TGI (P388 leukemia): > 1820 µM; TGI (SN12K1 renal): 1380 µM
CCC[CH2][Sn]([CH2]CCC)([O]C(=O)c1cc(OC)c(OC)cc1OC)[O][Sn]([CH2]CCC)([CH2]CCC)[O]C(=O)c1cc(OC)c(OC)cc1OC	1.34	3.16	1.51	1.7	1.26	1.76	0.508	–	GI50 (DLD-1 colon): 0.253 µM; GI50 (HOP-18 NSCLC): 1.78 µM; GI50 (SNB-78 CNS): 0.402 µM; GI50 (M19-MEL melanoma): 0.347 µM; GI50 (DMS 273 small cell lung): 0.762 µM; GI50 (XF 498 CNS): 0.196 µM; GI50 (DMS 114 small cell lung): 0.314 µM; GI50 (RXF-631 renal): 0.158 µM; TGI (RXF-631 renal): 0.365 µM
CN1C(=O)c2ccc3ccccc3c2C1=O	–	–	–	–	–	–	–	> 100 µM	–
CCOC(=O)N1C/C(=C\c2ccccc2)C(=O)/C(=C/c2ccccc2)C1	7.25	> 67.5	> 81.2	3.22	14.5	6.44	26.6	3.62 µM	–
O=[N+]([O-])/C=C/c1c(Cl)cccc1Cl	–	–	–	–	–	–	–	6.85 µM	–
C=CCn1c(=S)sc2c(C(=O)OCC)c3c(C)cc(C)cn3c2c1=O	> 100	–	> 100	> 100	–	> 100	–	–	–
Cc1c(C(=O)C/C(=N/NC(=O)c2ccccc2)C(=O)Nc2ccc(Cl)cc2)[n+](=O)c2ccccc2n1[O-]	> 100	> 100	> 100	–	> 100	> 100	> 100	–	TGI (RXF-631 renal): > 100 µM
C[C@H]1[C@H](C)N1CC(O)Cn1ccnc1[N+](=O)[O-] (some centres undefined)	–	–	–	–	–	–	–	> 100 µM	–
Cc1cc(N(CCC#N)S(=O)(=O)c2ccccc2)ccc1/C=C1\N=C(c2ccc(Cl)cc2)OC1=O	> 100	–	> 100	–	> 100	> 100	> 100	–	–
COc1cc(CNc2nc3c(N)cc(C(F)(F)F)cc3nc2-c2ccccc2)cc(OC)c1OC	> 100	> 100	–	> 100	> 100	> 100	86.2	–	GI50 (HOP-18 NSCLC): > 100 µM; TGI (RXF-631 renal): > 100 µM
C/C(CC(=O)NCCc1ccccc1)=N\NS(=O)(=O)c1ccc(C)cc1	> 100	–	> 100	> 100	> 100	> 100	> 100	–	TGI (RXF-631 renal): > 100 µM
CCOC(=O)NC(=O)c1cn(CCN2CCN(C(=O)CNC(=O)CNC(=O)Cn3cc(C(=O)NC(=O)OCC)c(=O)[nH]c3=O)CC2)c(=O)[nH]c1=O	> 100	> 100	> 100	> 100	> 100	> 100	> 100	–	–
O=C1C2C(C(=O)N1c1ccccc1)C1c3ccccc3C2C2C(=O)N(c3ccccc3)C(=O)C21 (centres undefined)	8.92	> 100	–	> 100	27	53.2	–	–	–
CC(C)C1CO[C@]2(C)CCC(=O)N12 (some centres undefined)	> 100	> 100	–	> 100	> 100	–	> 100	–	TGI (RXF-631 renal): > 100 µM
COc1ccccc1N=Nc1c(-c2ccccc2)nn(C(=O)CC(=O)Nc2cccc(C)c2)c1-c1ccccc1	> 100	> 100	> 100	> 100	77.1	> 100	61.5	–	TGI (RXF-631 renal): > 100 µM
Cc1ccc(S(=O)(=O)N/N=C(\c2nc3ccc(Cl)cc3[nH]c2=O)C(O)c2ccco2)cc1 (centres undefined)	> 100	> 100	–	> 100	> 100	> 100	–	–	–
